The target of assay [1] is T1, Human synovial fluid phospholipase A2 (HSF-PLA2) (Homo sapiens, UniProt P14555).
T1 construct: Human synovial fluid phospholipase A2 was purified approximately 5000 fold; from tissue; host or cells: human synovial fluid (enzyme purified about 5000 fold)
T1 sequence (P14555 21-144): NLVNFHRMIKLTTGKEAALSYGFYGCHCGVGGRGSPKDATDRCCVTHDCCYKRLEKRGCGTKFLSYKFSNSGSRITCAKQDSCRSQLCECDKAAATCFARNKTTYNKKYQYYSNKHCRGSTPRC
As to the kind of experiment: Human synovial fluid phospholipase A2 (HSF-PLA2) assay. In kind it is biochemical. The settings on record: [14C]-oleate-labeled E. coli substrate, pH 7.0, 5 min pre-incubation, 37° C., 30 minutes. Here is the method:
Human synovial fluid phospholipase A2 was purified approximately 5000 fold following the procedures of Franson et al., Lung 160, 275-284 (1982) and Fawzy et al., Bio Phys. J. 49, 533a (1986). Following purification the enzyme activity was measured by established methodology using [^14 C]-oleate-labeled, autoclaved E. coli as the substrate as also shown in the above noted references. The assay was performed in a final volume of 100 μl containing 50 mM HEPES (pH 7.0), 150 mM NaCl, 5 mM CaCl2, 7 nM [^14 C]-oleate-labeled E. coli phospholipid and with or without the compound from one of the examples herein undergoing an assay. The compound or control vehicle was pre-incubated with the PLA2 for 5 minutes followed by addition of the E. coli substrate to initiate the reaction. The reaction was maintained at 37° C. for 30 minutes and then terminated by the addition of 2 ml tetrahydrofuran (THF). The reaction product, [^14 C]-oleic acid, was extracted using a 1 ml Bond Elut-NH2 Solid phase extraction column. The IC50 value for the compound (mean±S.E.) is given in the following Table and represents the concentration of the compound required to inhibit 50% of the PLA2 activity.

In assay [2] the test system is LTB4 Biosynthesis, HL-60 cells. As to the kind of experiment: Assay for LTB4 (and PGE2) production by HL-60 cells. The settings on record: Homo sapiens; differentiated HL-60 cells, 10 min pre-incubation 37° C., stimulated with 5×10^-6 M calcium ionophore A23187, radioimmunoassay; read-out: LTB4 Biosynthesis inhibition cells IC50, HL60 Cells. In kind it is cell-based. Here is the method: HL-60 cells were induced to differentiate into granulocytes by a 4 day incubation with 0.8% (v/v) N,N-dimethyl formamide as disclosed in Fontana et al., Proc. Natl. Acad. Sci. 78. (6): 3863-3866 (1981); Agins et al., Biochem. Biophys. Res. Comm. 126, 143-149 (1985); and Bonser et al., Biochemistry 20: 5297-5301 (1981). Prior to performing the assay, differentiated HL-60 cells were washed once with Hanks' balanced salt solution containing 0.35 mg/ml sodium bicarbonate and 10 mM HEPES pH 7.35 (HBSS). HL-60 cells (3×10^6 cells/ml) were pre-incubated with the compound tested or a control vehicle at 37° C. for 10 minutes, followed by 5 minute incubation with 5×10^-6 M calcium ionophore A23187 in a final volume of 1.0 ml. After incubation, the cells were pelleted by centrifugation and the LTB4 and PGE2 in the supernatent were quantified by radioimmunoassay. IC50 values (means±S.E.) for compounds herein that were tested are shown in the following Table and represent the concentrations of the compound required to inhibit 50% of LTB4 or PGE2 production by HL-60 cells stimulated with the calcium ionophore A23187.

For assay [3], the system named is LTB4 Biosynthesis, Human PMNs. The assay can be described thus: LTB4 biosynthesis inhibition in human PMNs. In kind it is cell-based. To be noted: read-out: LTB4 Biosynthesis inhibition cells IC50, Human PMNs.

The text below walks through data of patent US5591756A, “LTB4 synthesis inhibitors” (G. D. Searle & Co., priority 1995, dated 1997).

As usually defined, the IC50 is the concentration needed to halve the response being measured. In assay [1], `CCCCCCCCCCCCCC(=O)CC(=O)c1ccc(C(=O)O)cc1` [Example 4, 4-(1,3-dioxohexadecanyl)benzoic acid] registered an IC50 of 90 µM.

Consider `CCCCCCCCCCCCCC(=O)CC(=O)c1cccc(C(=O)O)c1` [Example 5, 3-(1,3-dioxohexadecanyl)benzoic acid], for which the results for the concentration for half-maximal inhibition (IC50) in assay [1], in assay [2] and in assay [3] were 1.7 µM, 1.5 µM and 1200 nM, respectively.

`CCCCCCCCCCCCCC(=O)CC(=O)c1ccc(C(=O)O)o1` [Example 9, 5-(1,3-dioxohexadecanyl)-2-furancarboxylic acid]: the IC50 in assay [1] came out at 2.7 µM; in assay [2], 4.7 µM; in assay [3], 3500 nM.

With `CCCCCCCCCCCCCC(=O)CC(=O)c1ccc(C(=O)O)s1` [Example 15, 5-(1,3-dioxohexadecyl)-2-thiophenecarboxylic acid], the IC50 in assay [1] worked out at 1.9 µM; in assay [3], 2700 nM.

Take `CCCCCCCCCCCCCC(=O)CC(=O)c1cccc(-c2nnn[nH]2)c1` [Example 19, 1-[3-(1H-tetrazol-5-yl)phenyl]-1,3-hexadecadione]: the values for the IC50 in assay [1] and in assay [3] were 48 µM and 3000 nM, respectively.

On to `O=C(CCCCCCCCCOc1ccccc1)CC(=O)c1ccc(C(=O)O)cc1` [Example 22, 4-(1,3-dioxo-12-phenoxydodecyl)benzoic acid], for which the half-maximal inhibitory concentration (IC50) in assay [1] came out at 16 µM; in assay [3] it was 2700 nM.
